Assay results published in PubChem BioAssay (NCI).
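Assay format: 96-well plates, 48-hour exposure. Here, GI50 denotes the concentration required for 50% inhibition of growth. TGI denotes the concentration required for complete inhibition of growth.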

What was measured:
Assay in all cases: NCI-60 cell line screen, 48 h
[1] = test system: HT29 colon
[2] = test system: HOP-62 NSCLC
[3] = test system: SK-MEL-28 melanoma
[4] = test system: EKVX NSCLC
[5] = test system: MALME-3M melanoma
[6] = test system: LXFL 529 NSCLC
[7] = test system: OVCAR-4 ovarian
[8] = test system: M19-MEL melanoma
[9] = test system: NCI-H226 lung
[10] = test system: HCT-116 colon

Structure (SMILES) | TGI [1] [µM] | TGI [2] [µM] | TGI [3] [µM] | TGI [4] [µM] | TGI [5] [µM] | TGI [6] [µM] | TGI [7] [µM] | TGI [8] [µM] | TGI [9] [µM] | TGI [10] [µM] | GI50 [1] [µM] | GI50 [2] [µM] | GI50 [3] [µM] | GI50 [9] [µM] | GI50 [10] [µM] | GI50 [4] [µM] | GI50 [5] [µM] | GI50 [7] [µM]
Cc1cc(C)c2c(c1)Nc1ccccc1P2c1ccccc1 (stereo unspecified) | > 100 | 66.8 | > 100 | 91.1 | 71.8 | > 100 | > 100 | – | – | – | – | – | – | – | – | – | – | –
O=c1c(Sc2c(O)c3ccccc3c3ccccc3c2=O)c(O)c2ccccc2c2ccccc12 | > 100 | 86.4 | > 100 | > 100 | > 100 | > 100 | > 100 | > 100 | – | – | – | – | – | – | – | – | – | –
O=c1[nH]nc2ccccc2c1Cl | 23.6 | 40.7 | – | 15.5 | 31 | – | 23.8 | 20.1 | 52.8 | 29.9 | – | – | – | – | – | – | – | –
C=C1C(=O)OC2C1CC[C@H](C)C13OC(=O)CC1[C@@]23C (stereo partly specified) | > 100 | – | > 100 | > 100 | > 100 | > 100 | – | > 100 | > 100 | > 100 | – | – | – | – | – | – | – | –
Nc1c(Br)c(=O)[nH]c(=O)n1COCCO | > 100 | > 100 | > 100 | – | > 100 | > 100 | > 100 | > 100 | – | > 100 | – | – | – | – | – | – | – | –
CCc1ccccc1N1CCN(C(=O)c2cc(OC)c(OC)c(OC)c2)CC1 | 0.617 | > 46.2 | > 70.2 | 20.9 | 55.9 | – | – | > 100 | 5.6 | 16.5 | – | – | – | – | – | – | – | –
COc1ccc(C2=NN(C(=O)COc3ccc(Cl)cc3)C(O)(c3ccc(Cl)cc3)C2)cc1 (stereo unspecified) | > 100 | > 100 | > 100 | – | > 100 | > 100 | > 100 | – | > 100 | > 100 | – | – | – | – | – | – | – | –
CC(=O)NCCSC(=O)c1ccccc1 | > 78.2 | 0.525 | 1.14 | 8.24 | 0.304 | – | > 42.8 | – | 0.413 | 0.275 | – | – | – | – | – | – | – | –
Cc1nc2sc(C(=O)Nc3cccc4ccccc34)c(N)c2cc1C(=O)/C=C/c1ccccc1 | 1.06 | 2.71 | 5.91 | > 36.7 | > 34.9 | – | > 15.7 | – | 1.56 | 0.631 | 0.173 | 0.311 | 0.667 | 0.389 | 0.174 | 1.14 | 0.343 | 1.02
O=C1c2ccc3c4c5ccc(c24)C(=O)N1CCCOCCCCOCCCNCc1ccc(cc1)CNCCCOCCCCOCCCN(C3=O)C5=O | 2.36 | 3.31 | 1.63 | 1.63 | 1.3 | – | 1.18 | – | 6.58 | 1.9 | 0.956 | 1.15 | 0.894 | 1.77 | 0.888 | 0.824 | 0.628 | 0.567
CN(C)c1ccc(-c2cc(-c3ccc(Nc4nc(Nc5ccccc5)nc(Nc5ccc(Cl)cc5)n4)cc3)nc(N)n2)cc1 | 12.7 | 42.4 | 29.9 | > 100 | 49.2 | – | > 100 | – | 98.7 | 15.2 | 3.27 | 8.01 | 10.8 | 12.1 | 3.51 | 1.82 | 4.07 | 5.01
C=CC1=C[C@@H]2[C@@H]3O[C@]4(CC[C@H](O4)[C@@H](C)C[C@@H](O)C3=O)C[C@H](O)C3=NCC[C@@]32CC1 | – | 0.0075 | < 0.00333 | 0.00345 | < 0.00333 | – | 0.00522 | – | < 0.00333 | 0.00371 | < 0.00333 | < 0.00333 | < 0.00333 | < 0.00333 | < 0.00333 | < 0.00333 | < 0.00333 | < 0.00333
O=C(CCCCCCSc1nc(-c2ccccc2)cc(-c2ccccc2)n1)NO | 11.3 | 8.06 | 12.4 | 17.2 | 8.31 | – | 16.7 | – | 13.2 | 10.7 | 2.02 | 1.93 | 2.85 | 2.94 | 0.813 | 3.96 | 1.02 | 3.05
CC1=C(C(=O)Nc2cccc(Cl)c2)C(c2ccc([N+](=O)[O-])cc2)C(C(=O)Nc2cccc(Cl)c2)=C(C)N1 | 35 | > 100 | > 100 | > 100 | 59.5 | > 100 | > 100 | – | 84.5 | 71.9 | – | – | – | – | – | – | – | –
